The source of these data is patent US8563054B2, “Anti-inflammatory agent” (Maruzen Pharmaceuticals Co., Ltd., priority 2005, dated 2013).

In brackets after ≈: the same amount, converted by molar mass.

Experiment [1] deals with rabbit washed platelet suspension. Briefly: Platelet aggregation inhibitory effect (collagen-induced, washed platelets). It counts as cell-based. The settings on record: collagen as aggregation inducing agent, by interpolation. As to the method:
For the extracts and purified materials prepared in Production Examples 1 to 5 (hereinafter, may be referred to as “sample”), inhibitory effect on platelet aggregation was tested as follows.
First, rabbit blood, which was collected with the addition of 1/10 amount of 77 mmol/L EDTA (pH 7.4), was centrifuged (180×g, 10 minutes, room temperature) to obtain platelet suspension. Next, the platelet suspension was centrifuged (810×g, 10 minutes, 4° C.), and the supernatant was removed to obtain platelet. This was suspended in platelet washing solution (0.15 mol/L sodium chloride: 0.15 mol/L Tris-HCL buffer (pH 7.4): 77 mmol/L EDTA (pH7.4)=90:8:2), centrifuged in the same way as mentioned above. […]
Next, to 222 μL of the prepared washed platelet suspension, 1 μL of 200 mmol/L calcium chloride solution was added and allowed to react at 37° C. for 1 minute. […] Separately, rate of platelet aggregation, B, was determined in a similar operation to that mentioned above except that the solvent of sample solution was added instead of the sample solution. % Inhibition of platelet aggregation=[(B−A)/B]×100 <Formula 3> […]
Next, the sample concentration was reduced in a stepwise manner, and the above-mentioned percentage inhibition of platelet aggregation was measured. The sample concentration, at which 50% of platelet aggregation is inhibited, was determined by interpolation. […]

The target in experiment [2] is T1, hyaluronidase (Type IV-S, from bovine testis) (Bos taurus, UniProt Q2YDK3).
T1 construct: hyaluronidase solution (Type IV-S (from bovine testis))
T1 sequence (Q2YDK3 1-553): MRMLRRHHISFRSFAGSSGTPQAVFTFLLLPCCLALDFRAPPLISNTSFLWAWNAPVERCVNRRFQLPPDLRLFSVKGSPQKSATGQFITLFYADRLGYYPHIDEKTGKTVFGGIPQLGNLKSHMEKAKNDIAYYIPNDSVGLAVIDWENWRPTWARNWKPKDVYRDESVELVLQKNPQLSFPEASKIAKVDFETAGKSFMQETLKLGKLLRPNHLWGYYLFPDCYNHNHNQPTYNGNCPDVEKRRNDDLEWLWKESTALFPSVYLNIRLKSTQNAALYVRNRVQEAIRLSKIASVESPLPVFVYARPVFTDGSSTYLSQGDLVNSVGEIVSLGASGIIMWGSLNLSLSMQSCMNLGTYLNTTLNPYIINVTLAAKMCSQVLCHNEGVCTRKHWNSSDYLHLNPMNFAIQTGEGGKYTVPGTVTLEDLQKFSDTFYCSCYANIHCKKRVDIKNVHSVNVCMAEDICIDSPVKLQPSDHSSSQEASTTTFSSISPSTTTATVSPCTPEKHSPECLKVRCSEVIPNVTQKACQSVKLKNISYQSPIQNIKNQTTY
In words: Hyaluronidase activity inhibition assay. The experiment is classed as biochemical. The conditions noted are these: pH 3.5, 37° C., by interpolation. As to the method: For the extracts and purified materials prepared in Production Examples 1 to 5 (hereinafter, may be referred to as “sample”), inhibitory effect on hyaluronidase activity was tested as follows.
First, 0.1 mL of hyaluronidase solution (Type IV-S (from bovine testis; SIGMA 400 NF units/mL) was added to 0.1 mol/L acetic acid buffer (pH 3.5) in which each sample was dissolved, and allowed to react at 37° C. for 20 minutes.
Next, 0.2 mL of 2.5 mmol/L calcium chloride was added as an activating agent and allowed to react at 37° C. for 20 minutes. To this solution, 0.5 mL of 0.4 mg/mL potassium hyaluronate solution (from rooster comb) was added and allowed to react at 37° C. for 40 minutes. […] After that, absorbance at the wavelength of 585 nm was determined.
Next, similar operations and absorbance determination were performed without addition of enzyme. Further, as a control, using distillated water instead of sample solution, similar operations and absorbance determination were performed.
From the results of the measurements mentioned above, the percentage inhibition of hyaluronidase activity was calculated according to the following formula 1: % Inhibition of hyaluronidase activity=[1−(St−Sb)/(Ct−Cb)]×100 <Formula 1> […]
Next, the sample concentration was reduced in a stepwise manner, and the above-mentioned percentage inhibition of hyaluronidase activity was measured. […]

For experiment [3], the system named is rat basophilic leukemia cells (RBL-2H3). Briefly: Assay of inhibitory effect on hexosaminidase release (indicator of histamine release). It counts as cell-based. The conditions noted are these: RBL-2H3, DNP-specific IgE / DNP-BSA stimulation; by interpolation. The procedure:
For the extracts and purified materials prepared in Production Examples 1 to 5 (hereinafter, may be referred to as “sample”), inhibitory effect on hexosaminidase release was tested as follows. Since hexosaminidase is also released simultaneously upon release of to histamine inside a cell, the inhibitory effect on histamine release can be evaluated using hexosaminidase release as an indicator of histamine release.
First, rat basophilic leukemia cells (RBL-2H3) were cultured using a medium (S-MEM medium with 15% FBS; hereinafter the same) placed in 25 mL culture flasks, and then cells were collected by trypsin treatment. […]
Then, release was stopped by leaving the 96 well plate at rest on ice. […] After completion of the reaction, 250 μL of 0.1 mol/L Na2CO3/NaHCO3 was added to each well, and the absorbance at the wavelength of 415 nm was determined.
Next, as a blank test, the absorbance of a mixture of 10 μl it of cell supernatant and 250 μL of 0.1 mol/L Na2CO3/NaHCO3 at the wavelength of 415 nm was determined and was used for correction.
From the results of the measurements mentioned above, the percentage inhibition of hexosaminidase release was determined according to the following formula 2: % Inhibition of hexosaminidase release=[1−(B−C)/A]×100 <Formula 2> […]

As to `C=CC(C)(C)c1cc(/C=C/C(=O)c2ccc(O)cc2)c(OC)cc1O` [Licochalcone A of Production Example 5, licochalcone A], the “Sample concentration for 50% inhibition of platelet aggregation” value in experiment [1] came out at 79.7 µg/mL. In addition, the “Sample concentration for 50% inhibition of hyaluronidase activity” value in experiment [2] stood at 17.2 µg/mL. Further, the “Sample concentration for 50% inhibition of hexosaminidase release” value in experiment [3] is 23.5 µg/mL.

As to `CC1(C)C=Cc2c(ccc3c2OC[C@@H](c2ccc(O)cc2O)C3)O1` [Glabridin of Production Example 4, glabridin], the IC50 in experiment [1] (Oryctolagus cuniculus, Platelet, read-out: Sample concentration for 50% inhibition of platelet aggregation) was 400 µg/mL (≈ 1230 µM); in experiment [2] (read-out: Sample concentration for 50% inhibition of hyaluronidase activity (converted)), 56.4 µM.
